# Measured values published in publication PMC7765409 (International Journal of Molecular Sciences, 2020).
# Legend:
# CDK4 = tested on: CDK4; set-up: method as in AstraZeneca data repository; conditions: median log of IC50/EC50/Ki/Kd annotations, highest value; ref AstraZeneca data repository; cited from earlier work
# DGAT2 mRNA = assay: RT-qPCR gene expression in TG/FA-treated hiPSC-Hep; format: cell-based, human; conditions: dose-dependent, under condition of hepatic steatosis (TG/FA)
# Description: (§1) To explore the signaling partners triggered or altered by the drugs, we performed gene expression RT-qPCR. The hiPSC-Hep were pre-treated in a 24-well plate with the three compounds shown in Figure 7 for 24 h followed by TG/FA challenge for an additional 18 h and RNA from each treatment well was isolated. The pre-treatment paradigm was chosen to stay consistent with how the original HTS was performed. We analyzed several target gene expression levels in the C/EBP-EP300 pathway including CDK2, CDK4, C/EBPα and C/EBPβ, EP300, and diacylglycerol acyltransferase 2 (DGAT2).
# (§2) RNA was isolated from hiPSC-derived hepatocytes using the RNeasy kit (Qiagen, Frederick) and subsequently subjected to DNase digestion (Qiagen). Total RNA was quantified using NanoDrop 8000 (Thermo Scientific). The quality of total RNA was assessed by the Agilent Bioanalyzer Nano chip (Agilent Technologies) and RNA integrity number (RIN) ranged from 9.7 to 10. Reverse transcription was performed using the high capacity cDNA reverse transcription kit (Applied Biosystems, Foster City, CA, USA) according to the manufacturer’s recommendation and the complementary DNA (cDNA) obtained used for real-time quantitative PCR. The reaction mixture (10 μL), containing 1 μL of cDNA template, 0.5 μL each of primer and probe (20×, Thermo Fisher Scientific) mix for the gene of interest plus the reference gene and TaqMan Universal PCR master mix (Applied Biosystems) was added to the opaque white 384-well plates and amplified as follows: after 2 min of initial incubation at 50 °C and 10 min of initial denaturation at 95 °C, 45 cycles at 95 °C for 15 s, 60 °C for 1 min for annealing and 1 sec at 72 °C for final extension were performed. Assays were designed to have primers/probes to span exon–exon junctions (Table S1). Direct detection of PCR products was monitored by measuring the fluorescence produced by the result of TaqMan probe hydrolysis after every cycle. All experiments were carried out in triplicate in a LightCycler 480 thermocycler (Roche Diagnostic). Relative gene expression from qPCR data between groups of samples were assessed using a ∆∆Cq method. To adjust for variations in the cDNA synthesis each gene was normalized to that of hypoxanthine phosphoribosyl transferase 1 (HPRT1] or GAPDH mRNA.
# C/EBPβ gene expression = assay: RT-qPCR gene expression in TG/FA-treated hiPSC-Hep; format: cell-based, human; conditions: 24 h pre-treatment then TG/FA 18 h; relative to TG/FA
# Description: as §1, §2
# CDK8 = tested on: CDK8; set-up: method as in AstraZeneca data repository; conditions: median log of IC50/EC50/Ki/Kd annotations, highest value; ref AstraZeneca data repository; cited from earlier work
# [1] = tested on: lipid droplet accumulation in TG/FA-treated hiPSC-Hep; assay: hiPSC-Hep ER-stress (TG/FA) induced lipid droplet accumulation high-content assay, integrated spot signal (BODIPY 493/503); format: cell-based, human; conditions: Homo sapiens; for IC50: 10-point dose-response, pre-treatment then TG/FA 18 h, read-out: IC50, inhibition of lipid accumulation (integrated spot signal); for EC50: Figure S5 dose-response, read-out: EC50, inhibition of lipid droplet accumulation (black line: ISS)
# Description: Cryopreserved hiPSC-derived hepatocytes (iCell Hepatocytes 2.0; Cellular Dynamics International Madison, WI) plated at a density of 36 K/well in 384-well on collagen I coated Corning Biocoat 384-well plates (BD Biosciences, 101306), were cultured to promote hepatic differentiation and maturation into hepatic-like cells as previously described. Hepatocytes were plated according to the manufacturer’s protocol in a volume of 50 µL/well using BioTek^TM Microflo^TM select dispenser (#7170011, BioTek Instruments) for high-throughput and high-content analysis assay (HT/HCA) drug discovery. After plating cells were cultured according to vendor specifications in a cell culture incubator at 37 °C, 5% CO2 for 3–4 h. Then, 40 µL spent medium was aspirated using multi-channel automated pipette handling system (Integra ViaFlo 96/384) and replaced with 40 µL (80% exchange) of fresh plating medium. Approximately 24 h post-plating 80% of medium was replaced every day thereafter. At day 5 of differentiation, 40 µL/well spent medium was replaced with maintenance medium (MM) consisting of William’s E medium (Thermo Fisher Scientific) supplemented with 0.1 µM dexamethasone and hepatocyte maintenance supplement pack (Thermo Fisher Scientific) for an additional 2–3 days before HCA. The overview of automated HT system for hiPSC-derived hepatocytes differentiation, staining and image analysis for phenotypic screening is depicted in Figure S2. Primary screening hit confirmation and dose response studies were performed on different batches of hiPSC-derived hepatocytes.
# To induce hepatic triglycerides (TAG) accumulation, before staining, cells were treated with 20 μL of 2× FA mixture, consisting of different proportions of oleic acid (OA-BSA, 25 µM, Sigma, #O3008), palmitic acid (PA-BSA, 200 µM, Agilent Technologies, #102720100) and thapsigargin (TG, 1 µM, Abcam, #120286) with a total volume of 40 μL/well. The TG/FA mixture was dispensed with BioTek^TM Microflo^TM select dispenser (#7170011, BioTek Instruments) and incubated for 18 h. Next, to label TAG accumulation stored into cytoplasmic lipid droplets, upon treatment, living cells were washed two times with warm Dulbecco’s Phosphate-Buffered Saline 1X (PBS, Corning, #21-031CV) with a handheld 384-channel electronic pipette device and then incubated for 15 min with a lipophilic dye, BODIPY 493/503 (8 ug/mL Life technologies, #D3922-green), in PBS at 37 °C. BODIPY (493/503) has become the standard dye utilized by scientists to study lipid droplets in live cells. After three washes with PBS cells were fixed with 4% paraformaldehyde methanol-free (PFA, Electron Microscopy Science, #15710) in PBS for 15 min at room temperature (RT). Cell health was monitored by Hoechst 33342 (10 ug/mL, Molecular Probe, #H21492) staining in PBS for nuclear count. After TAG staining the 384-assay plates were loaded in an automated confocal microscope with Opera High Content Imaging System (PerkinElmer, Waltham, MA, USA). Dyes were excited and images were captured on the Hoechst 3342 and Alexa Fluor 488 channels and signals were collected with a long pass filter 410 and 505 nm, for nuclei and TAG, respectively, at objective 20× air objective for HCA. To capture enough cells (>600) for the analysis, eight fields per well were imaged. Hoechst 33342 fluorescence was used to identify the nuclear region and cell counts. To assess intracellular fat deposits, BODIPY 493/503 fluorescence intensity was measured inside the cytoplasm region.
# For the HCA screen, compounds tested for their inhibitory effects, were used as single dose at a 10 μM final concentration of compound in DMSO in each well (0.1% DMSO) in 20 μL of maintenance medium. Prior to compound addition, 30 µL/well of medium was removed from hiPSC-Hep cells screening plates with ViaFlo ([…]). Pre-spotted 80 nL of 10 mM compound were diluted to 20 μM (0.2% DMSO) in 40 μL of maintenance medium in the source 384-well plate. […]
# CDK7 = tested on: CDK7; set-up: method as in AstraZeneca data repository; conditions: median log of IC50/EC50/Ki/Kd annotations, highest value; ref AstraZeneca data repository; cited from earlier work
IC50 [1] [nM],EC50 [1] [nM],Structure (SMILES),pXC50 CDK4 (CDK4),DGAT2 mRNA level decreased by (DGAT2 mRNA) [%],effect on C/EBPβ gene expression (C/EBPβ gene expression),pXC50 CDK8 (CDK8),pXC50 CDK7 (CDK7)
320,320,Cc1ncc(-c2nc(Nc3ccc(N4CCN(C(=O)CO)CC4)cc3)ncc2F)n1C(C)C [C3],7.33,46,no effect,5.60,
4600,4600,"CNC(=O)c1nn(C)c2c1C(C)(C)Cc1cnc(Nc3ccc(N4CCN(C)CC4)cc3)nc1-2 [C16, Milciclib]",7.16,,,,7.51
